Key:
RAW 264.7 macrophages = test: cGMP radioimmunoassay in macrophages; type: cell-based, mouse; conditions: 2 h
Description: Nitrate/Nitrite Analysis. Both analytes were measured in the cell culture media which had been ultrafiltered to remove all proteins greater than 10,000 molecular weight. All samples were than analyzed according to the assay kit protocols. (R & D, Minneapolis, Minn.). cGMP Radioimmunoassay (RIA) in macrophages. Macrophages or vascular smooth muscle cells were exposed to CO (250 ppm) or air. 20 min before the end of the exposure 1 mM of 3-isobutyl-1-methylxanthine (IBMX) was added to the cells to prevent phosphodiesterase degradation of cGMP. After 2 h of exposure, cells were removed from the exposure chamber, rinsed with PBS and then 0.5 ml of 75% EtOH was added to the plate and cells were scraped and disrupted via sonication for 5 s. Samples were then centrifuged at 2000 g for 10 min. Supernatants were transferred to fresh tubes and evaporated to dryness. cGMP concentration in the cell extracts was determined by radioimmunoassay (NEN, Boston, Mass.) according to manufacturer's instructions. cGMP was normalized to protein concentration as determined by Bradford assay. Statistical Analysis. Data are expressed as the mean±SE. Differences in measured variables between experimental and control group were assessed using Student's t tests. Statistical calculations were performed on a Macintosh personal computer using the Statview II Statistical Package (Abacus Concepts, Berkeley, Calif.). […]

MKK3(−/−) mice given LPS = test: LPS-induced serum cytokines in MKK3(-/-) mice; type: in vivo, mouse; conditions: LPS 1 mg/kg, 250 ppm CO
Text: (§1) Animals. Male C57BL/6 and IL-10 (−/−) mice were purchased from Jackson Laboratory (Bar Harbor, Me.), and allowed to acclimate for one week with rodent chow and water ad libitum. The MKK (−/−) mice were generated as previously described [Lu, et al., EMBO J. 18:1845-1857 (1999)]. Wild type littermates were used as controls. All animals were housed in accordance with guidelines from the American Association for Laboratory Animal Care and Research Protocols and were approved by the Animal Care and Use Committee of Yale University School of Medicine. Reagents. All reagents were purchased from Sigma Chemical Co. (St Louis, Mo.) unless specified otherwise. Plasmid Construct. Plasmid pSFFV/HO-1 was constructed by insertion of the rat HO-1 cDNA [Shibahara, et al., Proc. Natl. Acad. Sci. USA. 82: 7865-7869 (1985)] downstream of the Friend spleen focus-forming virus 5′ long-terminal repeat in the mammalian expression vector pSFFV/neo [Fuhlbrigge, et al, Proc. Natl. Acad. Sci. USA. 85: 5649-5653 (1988)] (kindly provided by Stanley Korsmeyer). Transfection. […] Gas samples were taken by the analyzer through a port in the top of the chambers at a rate of 1 L/min and analyzed by electrochemical detection, with a sensitivity of 10-600 ppm. Concentration levels were measured hourly and there were no fluctuations in the CO concentrations once the chamber had equilibrated (approximately 5 min). […]

p38 MAP kinase = test: LPS-induced MAP kinase activation, Western blot (p38); type: cell-based, mouse; conditions: RAW 264.7 macrophages, LPS in the presence of CO
Text: as §1

JNK = test: LPS-induced MAP kinase activation, Western blot (JNK); type: cell-based, mouse; conditions: RAW 264.7 macrophages, LPS in the presence of CO
Text: as §1

For `[C-]#[O+]` [CO, carbon monoxide], the “increase in cGMP” value (RAW 264.7 macrophages; 250 ppm CO) was “no significant increase”, the cGMP (RAW 264.7 macrophages; CO 250 ppm) was 3.95 ± 0.6 pmol/mg protein and the “LPS-induced TNF-α production” value (MKK3(−/−) mice given LPS) was “did not affect”. For the same compound, the “serum IL-10 levels after LPS” value (MKK3(−/−) mice given LPS) was “did not exhibit augmented serum IL-10 levels”, the “LPS-induced p38 MAP kinase activation” value (p38 MAP kinase) was “significantly augmented” and the “LPS-induced JNK MAP kinase activation” value (JNK) was “not affected”.
